What was measured:
spleen cells = experiment: Radiation-induced apoptosis in splenocytes in vivo; conditions: female C57/BL mice, 4Gy whole-animal γ-radiation, compared to animals dosed with vehicle alone
Protocol: Determination of the Effect of Cds1 Inhibitory Compounds on Radiation-Induced Apoptosis in Splenocytes in vivo
Female C57/BL mice, 6-8 weeks of age, were dosed by oral gavage or by injection with Cds1 inhibitory compound before and at regular intervals after radiation exposure. One to three hours after first compound dose, the animals were irradiated with γ-rays administered to the whole animal at a dose between 0.5 and 4 Gy. At times between 4 and 24 h after irradiation, the animals were sacrificed, and the tissues of interest were excised. […] Briefly, cells or tissues are fixed with formaldehyde and permeabilized with ethanol, and DNA ends are then labelled by attaching nucleotide derivatives such as BrdUTP using the enzyme terminal deoxynucleotidyl transferase. DNA ends can then be detected by incubating the cells or tissues with fluorescently-labelled antibodies reactive with BrdU. Quantification can be done by laser scanning cytometry, by visual microscopical examination or by FACS.

[1] = test system: tumor cells from an established tumor cell line; experiment: Effect of Cds1 inhibitors on tumor growth in murine xenograft models; type: in vivo; conditions: xenograft in athymic nu/nu mice, compound plus local irradiation
Protocol: Effect of Cds1 Inhibitors on Tumor Growth in Murine Xenograft Models
One×10^6 to ten×10^6 tumor cells from an established tumor cell line are injected in the hind limbs of athymic nu/nu mice. Tumors are allowed to grow until they reach 30-100 mm^3. At that time mice are randomized into different treatment groups, and compound or vehicle is administered by injection or oral gavage. […] After this treatment tumor growth rate is followed by measurement of tumor size twice weekly in three orthogonal directions, which is used to calculate the tumor volume.

[2] = test system: cells from an established tumor line; experiment: Effect of Cds1 inhibitory compounds on tumor cell line clonogenic survival; type: cell-based; conditions: compound exposure 12 to 48 h with DNA-damaging second agent; compared to control group having no compound
Protocol: Typically 3 to 300 cells from an established tumor line were plated per cm^2 in petri dishes in the appropriate growth medium at 37° C. Cells were exposed to compounds dissolved in the growth medium from appropriately formulated stock solutions for times ranging from 12 to 48 h. During the course of compound exposure the cells were treated with a second agent with DNA-damaging capabilities, such as ionizing radiation or certain chemotherapeutic compounds. After this treatment regimen cells were incubated in growth medium containing no compound for a period of 7 to 14 days. At that time the cells were fixed with methanol and stained with 0.25% crystal violet. The number of colonies of cells exceeding 50 cells was determined for each treatment, and this number was used to calculate the effect of compounds on the survival of cells.

spleen B cells = experiment: Radiation-induced apoptosis in isolated primary cells (Annexin V staining); type: cell-based, C57/BL6 mice; conditions: isolated C57/BL6 spleen cells, 0.5-1 Gy 137Cs γ-radiation, Annexin V/propidium iodide FACS 6-24 h after irradiation
Protocol: Determination of the Effect of Cds1 Inhibitory Compounds on Radiation-Induced Apoptosis in Isolated Primary Cells
Spleen cells were isolated from C57/BL6 mice as follows: Spleens were disrupted by grinding between two frosted glass slides, and cells were passed through a cell strainer. Erythrocytes were lysed by incubation in ammonium chloride solution followed by careful washing of cells in isotonic medium. The spleen cells were plated in 60 mm petri dishes at 5×10^6 cells/mL in RPMI medium containing 10% fetal calf serum and Cds1 inhibitor. […] Determination of apoptotic cells by Annexin V staining was performed using the Annexin V-FITC Apoptosis Detection Kit™ (Cat# PF032 Oncogene Research Products) according to the manufacturer's instructions. Briefly, 6-24 h after irradiation, the cells were washed with buffered isotonic salt solution and suspended at 1×10^6 cells/mL in binding buffer (10 mM Hepes pH 7.4, 150 mM NaCl, 2.5 mM CaCl2, 1 mM MgCl2, 4% bovine serum albumin) containing 80 ng/mL Annexin V labelled with FITC and 0.4 μg/mL anti-B220 antibody labelled with allophycocyanin. The cells were then pelleted and resuspended in binding buffer containing 0.6 μg/mL propidium iodide. The stained cells were analyzed on a FACS machine (Fluorescence Activated Cell Sorter™, Becton Dickinson). […] Fraction of non-apoptotic B-cells or total cells were determined separately based on staining with the B220 antibody mentioned above.

Compound	protection of spleen B cells from radiation-induced apoptosis (spleen B cells)	also measured
NC(=O)c1ccc2[nH]c(-c3ccc(Oc4ccc(Cl)cc4)cc3)nc2c1 [Example 1, 2-[4-(4-Chloro-phenoxy)-phenyl]-1H-benzoimidazole-5-carboxylic acid amide]	protected spleen B cells from radiation-induced apoptosis	protection of spleen cells from apoptosis (spleen cells): protection of spleen cells from apoptosis was observed; tumor growth rate (tumor volume) [1]: inconclusive; number of colonies of cells (clonogenic survival) [2]: decrease in the number of colonies of cells
NC(=O)c1ccc2[nH]c(-c3ccc(Oc4ccc5ccccc5c4)cc3)nc2c1 [Example 9, 2-[4-(2-Naphthyloxy)-phenyl]-1H-benzoimidazole-5-carboxylic acid amide]	protected spleen B cells from radiation-induced apoptosis	–
NC(=O)c1ccc2[nH]c(-c3ccc(Oc4ccc(Br)cc4)cc3)nc2c1 [Example 11, 2-[4-(4-Bromo-phenoxy)-phenyl]-1H-benzoimidazole-5-carboxylic acid amide]	protected spleen B cells from radiation-induced apoptosis	–
NC(=O)c1ccc2[nH]c(-c3ccc(Sc4ccc(F)c(Cl)c4)cc3)nc2c1 [Example 38, 2-[4-(3-Chloro-4-fluoro-phenylsulfanyl)-phenyl]-1H-benzoimidazole-5-carboxylic acid amide]	protected spleen B cells from radiation-induced apoptosis	–
NC(=O)c1ccc2[nH]c(-c3ccc(Sc4ccc(Cl)cc4)nc3)nc2c1 [Example 42, 2-[6-(4-Chloro-phenylsulfanyl)-pyridin-3-yl]-1H-benzoimidazole-5-carboxylic acid amide]	protected spleen B cells from radiation-induced apoptosis	–
Cc1ccc(Sc2ccc(-c3nc4cc(C(N)=O)ccc4[nH]3)cn2)cc1 [Example 43, 2-[6-(4-Methyl-phenylsulfanyl)-pyridin-3-yl]-1H-benzoimidazole-5-carboxylic acid amide]	protected spleen B cells from radiation-induced apoptosis	–
NC(=O)c1ccc2[nH]c(-c3ccc(Oc4ccc5c(c4)OCO5)cc3)nc2c1 [Example 84, 2-[4-(Benzo[1,3]dioxol-5-yloxy)-phenyl]-1H-benzoimidazole-5-carboxylic acid amide]	protected spleen B cells from radiation-induced apoptosis	–
NC(=O)c1ccc2[nH]c(-c3ccc(Sc4ccc(O)cc4)cc3)nc2c1 [Example 87, 2-[4-(4-Hydroxy-phenylsulfanyl)-phenyl]-1H-benzoimidazole-5-carboxylic acid amide]	protected spleen B cells from radiation-induced apoptosis	–
NC(=O)c1ccc2[nH]c(-c3ccc(Oc4ccc(Br)c(O)c4)cc3)nc2c1 [Example 88, 2-[4-(4-Bromo-3-hydroxy-phenoxy)-phenyl]-1H-benzoimidazole-5-carboxylic acid amide]	protected spleen B cells from radiation-induced apoptosis	–
NS(=O)(=O)c1ccc2[nH]c(-c3ccc(Oc4ccc(Cl)cc4)cc3)nc2c1 [Example 94, 2-[4-(4-Chloro-phenoxy)-phenyl]-1H-benzoimidazole-5-sulfonic acid amide]	protected spleen B cells from radiation-induced apoptosis	–
NC(=O)c1ccc2[nH]c(-c3ccc(Oc4ccc(I)cc4)cc3)nc2c1 [Example 97, 2-[4-(4-Iodo-phenoxy)-phenyl]-1H-benzoimidazole-5-carboxylic acid amide]	protected spleen B cells from radiation-induced apoptosis	–

— patent publication US7271261B2, “Substituted benzimidazoles and imidazo-[4,5]-pyridines” (Ortho-McNeil Pharmaceutical, Inc., priority 2001, dated 2007)
